Results from US11872210B2, “Thiol isomerases inhibitors and use thereof” (WESTERN NEW ENGLAND UNIVERSITY, priority 2017, dated 2024).

Assays:
human washed platelets = assay: Collagen stimulated platelet aggregation; assay type: cell-based; conditions: collagen 1 μg/mL, 3 minutes
Protocol: Human Platelet Preparation: 50 mL of blood was drawn from drug free, consenting individuals, into a syringe containing 5 mL sodium citrate (4% w/v) and 7.5 mL warmed ACD (85 mM sodium citrate, 71 mM citric acid and 110 mM glucose). Blood was centrifuged at 102 g for 20 minutes to obtain platelet-rich plasma (PRP), which was then decanted and 104 prostacyclin (PGI2 125 μg/mL, solubilized in ethanol) added. Platelets were pelleted by centrifugation at 1413 g for 10 minutes, platelet poor plasma was discarded and the pellet resuspended in 25 mL Tyrode's-HEPES buffer (134 mM NaCl, 2.9 mM KCl, 0.34 mM Na2HPO4, 12 mM NaHCO3, 20 mM HEPES, 1 mM MgCl2 and 5 mM glucose pH 7.3), 3 mL of ACD and 10 μL PGI2 were added and then following centrifugation at 1413 g for 10 minutes, the platelet pellet was re-suspended to the appropriate cell density using Tyrode's buffer. Platelets were rested for 30 minutes at 30° C. to allow platelet responses to recover.
Platelet Aggregation: 445 μL of washed platelets at (4×10^8 cells/mL) were incubated for 5 minutes with vehicle (0.1% (v/v) DMSO) or 54 zafirlukast or montelukast. 50 μL of collagen 1 μg/mL (final), was added and light transmission monitored for 3 minutes at 37° C. with constant stirring (1200 rpm) using an aggregometer (Chronolog, USA).
Statistical analyses: All raw data was analyzed by 1-way ANOVA and where appropriate normalized to vehicle. GraphPad Prism was used to perform statistical analysis by ANOVA or students T test. The level of significance of p values is as follows, *p<0.05,**p<0.01, ***p<0.005. Data presented are mean+/−standard error of the mean.
Zafirlukast inhibits platelet aggregation: Human washed platelets (4×10^8 cells/mL) were pre-treated with 0.1 μM-10 μM zafirlukast or vehicle. Platelets were stimulated with collagen 1 μg/mL and allowed to aggregate for 3 minutes. Aggregation traces representative of the response were obtained and dose responses compared.

MDA-MB-231 cells = assay: PrestoBlue cell proliferation assay, MDA-MB-231; assay type: cell-based
Protocol: Cells were plated at 6,000 cells/well in a 96-well plate and treated with the indicated concentration of zafirlukast 24 hours later. Cells were allowed to grow for an additional 24 hours before alterations in growth were measured by the PrestoBlue cell proliferation assay in triplicate. Fluorescence readings with an excitation at 570 nm and emission of 600 nm were collected and treated samples were converted to a percentage of the untreated controls. OVCar8 (human ovarian cancer cell line), HCT116 (human colon cancer), HeLa (cervical cancer cell line) and MDA-MB-231 (breast cancer cell line) cell lines were examined for their ability to inhibit cell proliferation. […] Table 1 illustrates the results of a cell proliferation assay testing zafirlukast against OVCar8 cells, HCT116 cells, HeLa cells and MDA-MB-231 cells.

thrombus formation = assay: Thrombus formation in mice after laser injury of cremaster muscle arterioles (intravital microscopy); assay type: in vivo, C57/BL6 mouse; conditions: infused to circulating concentration of 20 μM, 5 minutes
Protocol: The effects of zafirlukast on thrombus formation in mice was determined following laser injury of cremaster muscle arterioles, and observed by intravital microscopy. Male C57/BL6 mouse platelets were labelled with DyLight 649-conjugated anti-GPIb antibody (0.2 μg/g body weight) and either vehicle or zafirlukast (ZFL) infused (at a volume required to achieve a circulating concentration of 20 μM). Following laser injury, images were recorded for 5 minutes. […] FIG. 6 illustrates the effects of ZFL on bleeding were determined by tail bleeding assay. Vehicle or ZFL (at a volume required to achieve a circulating concentration of 20 μM) were infused into the femoral veins of C57/BL6 mice, 5 minutes prior to tail biopsy. 0.5 cm of tail tip was excised and blood collected in phosphate-buffered saline (PBS), and time to cessation of bleeding was recorded. […] Graphs represent mean±SEM, n=10 per treatment, data analyzed by Student's T test, ***p<0.005.

[1] = tested on: EGFR activation and downstream signaling (STAT3 phosphorylation); assay: Western blot of EGFR signaling in HCT116 cells; assay type: cell-based, human; conditions: 24 hours
Protocol: HCT116 (human colon cancer) cells were incubated with drug for 24 hours and total cellular extracts prepared. Protein levels were normalized, protein loaded on SDS-polyacrylamide gels and then electrophoresed before transferring to a PVDF membrane. The membranes were probed with primary antibodies of interest, followed by secondary antibodies conjugated with horseradish peroxidase.

platelets = assay: Platelet spreading upon collagen; assay type: cell-based; conditions: 0.1 μM-10 μM
Protocol: Platelet responses in the presence of zafirlukast, (0.1 μM-10 μM) were tested in a range of platelet functional assays including aggregation, granule secretion and spreading studies.

whole human blood = assay: Thrombus formation under flow (in vitro, collagen coated Cellix capillaries); assay type: cell-based
Protocol: Thrombus Formation under flow: Human blood was drawn into 3.2% (w/v) sodium citrate and labelled with 2 μM DIOC-6 for an hour. A […] biochip was coated with 1 μL Collagen (100 μg/mL) for 1 hour. Blood was then incubated with vehicle (0.1% (v/v) DMSO) or zafirlukast (10 μM) for 5 minutes prior to perfusion over collagen coated Cellix microfluidic cells at a shear rate of 20 dynes/cm^2. Images were recorded for 10 minutes perfusion by confocal microscopy (Nikon Al Microscope, Nikon, Japan) and analyzed using ImageJ. Whole human blood labelled with the lipophilic dye DIOC-6 was incubated with zafirlukast (10 μM) or vehicle (0.1% (v/v) DMSO) for 5 minutes before perfusion over […] capillaries coated with collagen (100 μg/mL) at an arterial shear rate of 20 dynes/cm^2. Images were recorded for 10 minutes using confocal microscopy and analyzed using ImageJ. The median fluorescence intensity was determined and compared to max intensity response; the more intense the fluorescence the larger the volume of thrombus formed.

COc1cc(C(=O)NS(=O)(=O)c2ccccc2C)ccc1Cc1cn(C)c2ccc(NC(=O)OC3CCCC3)cc12 [zafirlukast, 4-(5-cyclopentyloxycarbonylamino-1-methylindol-3-ylmethyl)-3-methoxy-N-o-tolylsulfonylbenzamide]
inhibition of platelet aggregation (in words) (human washed platelets; 0.1 μM): did not significantly inhibit | inhibition of platelet aggregation (in words) (human washed platelets; 0.3 μM): did not significantly inhibit | platelet aggregation, normalized to vehicle (human washed platelets; 0.6 μM): 54.8% | platelet aggregation, normalized to vehicle (human washed platelets; 1.25 μM): 54.9% | platelet aggregation, normalized to vehicle (human washed platelets; 2.5 μM): 40.00% | platelet aggregation, normalized to vehicle (human washed platelets; 5 μM): 22.47% | platelet aggregation, normalized to vehicle (human washed platelets; 10 μM): 18.1% | inhibition at 0.6 µM (human washed platelets; Homo sapiens, Platelet, 0.05 h, 0.6 μM): 45% | inhibition at 1.25 µM (human washed platelets; Homo sapiens, Platelet, 0.05 h, 1.25 μM): 45% | inhibition at 2.5 µM (human washed platelets; Homo sapiens, Platelet, 0.05 h, 2.5 μM): 60% | inhibition at 5 µM (human washed platelets; Homo sapiens, Platelet, 0.05 h, 5 μM): 77.5% | inhibition at 10 µM (human washed platelets; Homo sapiens, Platelet, 0.05 h, 10 μM): 81.9% | IC50 (MDA-MB-231 cells; Homo sapiens, MDA-MB-231, breast cancer, 24 hours treatment): 100 µM | sensitivity of cell proliferation (in words) (MDA-MB-231 cells; MDA-MB-231, compared with OVCar8 and HCT116): less sensitive | thrombus size (maximum fluorescence intensity), in words (thrombus formation): reduction in thrombus size | inhibition of EGFR activation and downstream signaling (STAT3 phosphorylation), in words [1]: almost complete inhibition | platelet spreading upon collagen (in words) (platelets): inhibit | final size of the thrombus (in words) (whole human blood; 10 μM, 10 minutes perfusion): significantly diminished compared to the vehicle | median fluorescence intensity (MFI) of thrombus (whole human blood; 10 μM, after 8 minutes of flow, 20 dynes/cm^2, vehicle 89.15): 74.86 Au | inhibition at 10 µM (whole human blood; Homo sapiens, arterial shear 20 dynes/cm^2, read-out: inhibition of median fluorescence intensity compared to vehicle): 14.2%
